Reference: PMC12406204 (Journal of Medicinal Chemistry, 2025)

Test system: mouse primary neurons
Assay: Neuroprotection in primary cultures exposed to LPS + IFN-γ
Format: cell-based
Protocol: To unequivocally confirm that the observed neuroprotective effect was indeed mediated by CB2R activation, an additional experiment was conducted (Figure C).
To prepare primary neurons, brains from fetuses of pregnant CD1 mice were removed (gestational age: 19 days). Neurons were isolated as described in Hradsky et al. Briefly, after removal of the meninges, samples were dissected and digested with 0.25% trypsin (20 min at 37 °C). The effect of trypsin was stopped by adding an equal volume of culture medium (supplemented DMEM). A single-cell suspension was obtained by repeated pipetting followed by passage through a 100 μm-pore mesh. Pelleted (7 min, 200g) cells were resuspended in 2 mL of supplemented DMEM and seeded at a density of 3.5 × 10^5 cells/mL in 6-well plates. […]
Primary cultures of striatal neurons were treated for 24 h with selected SCRAs (100 nM). […] After ∼3 min of incubation at room temperature, 10 μL of the mixture were sampled in a Neubauer chamber and counted with a Countess II FL (Life Technologies, California, CA, USA). The unstained (viable) and stained (nonviable) cells were counted separately, and the percentage of viability was calculated as total number of viable cells/total number of cells × 100.

NC(=O)[C@@H]1CCCCN1C(=O)c1nn(Cc2ccc(F)cc2)c2ccccc12 [18o]
cell viability after LPS + IFN-γ with CB2R antagonist SR144528 (compound alongside SR144528): ~60% | cell viability after LPS + IFN-γ (primary cultures exposed to LPS + IFN-γ): ~100%
